Measurements taken from patent US9168259B2 (GRÜNENTHAL GMBH, priority 2010, dated 2015).

Biological target: T1, KCNQ2/3 channels (Homo sapiens, UniProt O43525+O43526)
T1 construct: expressed in transfected cells
Assay: Fluorescence assay using a voltage sensitive dye (fluorimetry)
Format: cell-based
Conditions: CHO-K1 cells expressing KCNQ2/3; for Emax: CHO-K1, plateau effect relative to saturated retigabine (50 μM) = 100%, negative values = antagonistic, read-out: Fluorimetry % efficacy (retigabine = 100%); for EC50: IC50 where % efficacy is negative, read-out: Fluorimetry EC50/IC50

T1 sequence (O43526 whole entry): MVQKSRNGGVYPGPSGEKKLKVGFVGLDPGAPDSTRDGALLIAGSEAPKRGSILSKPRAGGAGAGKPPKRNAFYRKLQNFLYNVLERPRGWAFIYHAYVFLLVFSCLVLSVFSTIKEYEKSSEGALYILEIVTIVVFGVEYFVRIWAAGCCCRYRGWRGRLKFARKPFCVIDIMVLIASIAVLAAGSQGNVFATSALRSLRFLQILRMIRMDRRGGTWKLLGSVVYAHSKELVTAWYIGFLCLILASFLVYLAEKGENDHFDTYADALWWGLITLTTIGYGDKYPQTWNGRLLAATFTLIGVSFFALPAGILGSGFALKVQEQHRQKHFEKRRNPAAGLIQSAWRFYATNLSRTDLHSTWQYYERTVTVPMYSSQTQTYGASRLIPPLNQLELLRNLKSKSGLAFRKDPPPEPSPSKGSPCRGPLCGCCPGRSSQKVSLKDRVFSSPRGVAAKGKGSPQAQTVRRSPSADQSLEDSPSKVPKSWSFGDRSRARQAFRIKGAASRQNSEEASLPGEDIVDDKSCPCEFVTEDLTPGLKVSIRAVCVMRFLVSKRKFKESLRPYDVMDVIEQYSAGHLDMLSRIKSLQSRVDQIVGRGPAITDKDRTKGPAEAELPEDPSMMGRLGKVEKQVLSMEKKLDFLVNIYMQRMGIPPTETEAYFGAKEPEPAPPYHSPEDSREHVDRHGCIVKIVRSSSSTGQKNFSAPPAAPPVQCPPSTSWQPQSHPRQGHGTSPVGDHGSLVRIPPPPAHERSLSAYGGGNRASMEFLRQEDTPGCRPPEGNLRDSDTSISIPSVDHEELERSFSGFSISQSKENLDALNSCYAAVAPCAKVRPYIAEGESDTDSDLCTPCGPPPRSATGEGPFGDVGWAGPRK
T1 sequence (O43525 whole entry): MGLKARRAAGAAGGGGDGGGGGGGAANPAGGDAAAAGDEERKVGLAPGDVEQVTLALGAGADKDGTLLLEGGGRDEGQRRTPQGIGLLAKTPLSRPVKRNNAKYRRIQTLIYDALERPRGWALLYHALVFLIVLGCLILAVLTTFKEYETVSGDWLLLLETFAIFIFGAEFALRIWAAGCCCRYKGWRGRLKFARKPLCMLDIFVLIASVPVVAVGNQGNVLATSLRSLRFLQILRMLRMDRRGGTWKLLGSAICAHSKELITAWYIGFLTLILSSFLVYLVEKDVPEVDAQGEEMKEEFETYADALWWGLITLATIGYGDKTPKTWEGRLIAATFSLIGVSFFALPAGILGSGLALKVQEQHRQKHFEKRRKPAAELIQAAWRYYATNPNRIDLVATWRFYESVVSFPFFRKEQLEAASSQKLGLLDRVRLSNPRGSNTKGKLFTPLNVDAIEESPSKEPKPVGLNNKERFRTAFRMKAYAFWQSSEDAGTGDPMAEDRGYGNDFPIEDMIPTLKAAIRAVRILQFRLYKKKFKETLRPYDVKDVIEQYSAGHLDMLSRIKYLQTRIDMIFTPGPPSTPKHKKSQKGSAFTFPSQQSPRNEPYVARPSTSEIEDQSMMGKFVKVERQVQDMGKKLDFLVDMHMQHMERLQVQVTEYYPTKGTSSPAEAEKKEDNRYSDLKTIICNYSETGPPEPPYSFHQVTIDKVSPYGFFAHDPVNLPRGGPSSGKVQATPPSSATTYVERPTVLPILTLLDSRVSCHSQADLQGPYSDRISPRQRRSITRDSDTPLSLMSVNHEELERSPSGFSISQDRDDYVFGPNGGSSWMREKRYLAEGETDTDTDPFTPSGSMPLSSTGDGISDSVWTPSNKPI

Row | Emax [%] | EC50 [nM] | SMILES
1 | 137 | 216 | CCOc1nc(N2CCOCC2)cc(C)c1C(=O)NCc1ccc(F)cc1 [Example 64, 2-Ethoxy-N-[(4-fluorophenyl)-methyl]-4-methyl-6-morpholin-4-yl-pyridine-3-carboxylic acid amide]
2 | 137 | 113 | CCSc1nc(N2CCOC(CC)C2)cc(C)c1C(=O)NCc1cccc(F)c1 (centres unmarked) [Example 167, 6-(2-Ethyl-morpholin-4-yl)-2-ethylsulfanyl-N-[(3-fluorophenyl)-methyl]-4-methyl-pyridine-3-carboxylic acid amide]
3 | 160 | 29 | Cc1cc(N2CCOCC2)nc(C(C)C)c1C(=O)NCc1cc(F)cc(F)c1 [Example 316, N-[(3,5-Difluoro-phenyl)-methyl]-2-isopropyl-4-methyl-6-morpholin-4-yl-pyridine-3-carboxylic acid amide]
4 | 210 | 308 | Cc1cc(N2CCOCC2)nc(N2CCCC2)c1C(=O)NCc1cccc(F)c1 [Example 24, N-[(3-Fluorophenyl)-methyl]-4-methyl-6-morpholin-4-yl-2-pyrrolidin-1-yl-pyridine-3-carboxylic acid amide]
5 | 143 | 645 | COc1nc(N2CCOCC2)cc(C)c1C(=O)NCc1ccc(F)cc1 [Example 39, N-[(4-Fluorophenyl)-methyl]-2-methoxy-4-methyl-6-morpholin-4-yl-pyridine-3-carboxylic acid amide]
6 | 136 | 451 | CCSc1nc(N2CCOCC2)cc(C)c1C(=O)NCc1ccc(F)c(COC)c1 [Example 149, 2-Ethylsulfanyl-N-[[4-fluoro-3-(methoxymethyl)-phenyl]-methyl]-4-methyl-6-morpholin-4-yl-pyridine-3-carboxylic acid amide]
7 | 100 | 133 | CCSc1nc(N2CCOCC2)cc(C)c1C(=O)NCc1cc(F)ccc1F [Example 101, N-[(2,5-Difluoro-phenyl)-methyl]-2-ethylsulfanyl-4-methyl-6-morpholin-4-yl-pyridine-3-carboxylic acid amide]
8 | 210 | 2010 | Cc1cc(N2CCOCC2)nc(N2CCOCC2)c1C(=O)NCc1cccc(F)c1 [Example 12, N-[(3-Fluorophenyl)-methyl]-4-methyl-2,6-dimorpholin-4-yl-pyridine-3-carboxylic acid amide]
9 | 162 | 260 | CCSc1nc(N2CCOCC2)cc(C)c1C(=O)NCc1ccccc1 [Example 55, N-Benzyl-2-ethylsulfanyl-4-methyl-6-morpholin-4-yl-pyridine-3-carboxylic acid amide]
10 | 140 | 782 | CCNc1nc(N2CCOCC2)cc(C)c1C(=O)NCc1cccc(F)c1 [Example 20, 2-Ethylamino-N-[(3-fluorophenyl)-methyl]-4-methyl-6-morpholin-4-yl-pyridine-3-carboxylic acid amide]
11 | 127 | 135 | CCSc1nc(N2CCOCC2)cc(C)c1C(=O)NCc1ccc(F)c(C)c1 [Example 201, 2-Ethylsulfanyl-N-[(4-fluoro-3-methyl-phenyl)-methyl]-4-methyl-6-morpholin-4-yl-pyridine-3-carboxylic acid amide]
12 | 188 | 50 | CCSc1nc(N2CCOC[C@H]2C)cc(C)c1C(=O)NCc1cccc(F)c1 [Example 295, 2-Ethylsulfanyl-N-[(3-fluorophenyl)-methyl]-4-methyl-6-[(3R)-3-methyl-morpholin-4-yl]-pyridine-3-carboxylic acid amide]
13 | 196 | 371 | Cc1cc(N2CCOCC2)nc(C(C)(C)C)c1C(=O)NCc1cccc(F)c1 [Example 250, 2-tert-Butyl-N-[(3-fluorophenyl)-methyl]-4-methyl-6-morpholin-4-yl-pyridine-3-carboxylic acid amide]

Second part, the compound before the results:

Row | SMILES | Emax [%] | EC50 [nM]
14 | COC[C@@H]1CN(c2cc(C)c(C(=O)NCc3ccc(Cl)cc3)c(C(C)C)n2)CCO1 [Example 285, N-[(4-Chlorophenyl)-methyl]-2-isopropyl-6-[(2S)-2-(methoxymethyl)-morpholin-4-yl]-4-methyl-pyridine-3-carboxylic acid amide] | 126 | 157
15 | CCSc1nc(N2CCOCC2)cc(C)c1C(=O)NCc1ccc(OC(F)(F)F)cc1 [Example 97, 2-Ethylsulfanyl-4-methyl-6-morpholin-4-yl-N-[[4-(trifluoromethyloxy)-phenyl]methyl]-pyridine-3-carboxylic acid amide] | 136 | 67
16 | CCSc1nc(N(C)C2CCC(OC)CC2)cc(C)c1C(=O)NCc1cccc(F)c1 (centres unmarked) [Example 259, 2-Ethylsulfanyl-N-[(3-fluorophenyl)-methyl]-6-[(4-methoxy-cyclohexyl)-methyl-amino]-4-methyl-pyridine-3-carboxylic acid amide] | 133 | 298
17 | CCSc1nc(N2CCOCC2)cc(C)c1C(=O)NCCCCC(C)(C)C [Example 116, N-(5,5-Dimethyl-hexyl)-2-ethylsulfanyl-4-methyl-6-morpholin-4-yl-pyridine-3-carboxylic acid amide] | 210 | 131
18 | CCSc1nc(N2CCOCC2)cc(C)c1C(=O)NCc1ccc2c(c1)OCO2 [Example 134, N-(1,3-Benzodioxol-5-yl-methyl)-2-ethylsulfanyl-4-methyl-6-morpholin-4-yl-pyridine-3-carboxylic acid amide] | 159 | 1140
19 | Cc1cc(N2CCOCC2)nc(OCCN(C)C)c1C(=O)NCc1ccc(Cl)cc1 [Example 283, N-[(4-Chlorophenyl)-methyl]-2-(2-dimethylaminoethyloxy)-4-methyl-6-morpholin-4-yl-pyridine-3-carboxylic acid amide] | 22 | –
20 | CCSc1nc(N2CCO[C@H](COC)C2)cc(C)c1C(=O)NCc1ccc(Cl)cc1 [Example 255, N-[(4-Chlorophenyl)-methyl]-2-ethylsulfanyl-6-[(2S)-2-(methoxymethyl)-morpholin-4-yl]-4-methyl-pyridine-3-carboxylic acid amide] | 121 | 169
21 | CCSc1nc(N(C)Cc2cccnc2)cc(C)c1C(=O)NCc1cccc(F)c1 [Example 119, 2-Ethylsulfanyl-N-[(3-fluorophenyl)-methyl]-4-methyl-6-[methyl-(pyridin-3-yl-methyl)-amino]-pyridine-3-carboxylic acid amide] | 91 | 2420
22 | CCSc1nc(N(C)c2ccncc2)cc(C)c1C(=O)NCc1cccc(F)c1 [Example 200, 2-Ethylsulfanyl-N-[(3-fluorophenyl)-methyl]-4-methyl-6-(methyl-pyridin-4-yl-amino)-pyridine-3-carboxylic acid amide] | 22 | –
23 | CCSc1nc(N2CCOCC2)cc(C)c1C(=O)NCC1CCCC1 [Example 43, N-(Cyclopentyl-methyl)-2-ethylsulfanyl-4-methyl-6-morpholin-4-yl-pyridine-3-carboxylic acid amide] | 189 | 679
24 | CCSc1nc(N2CCOCC2)cc(C)c1C(=O)NCCCC(C)(C)CC [Example 348, N-(4,4-Dimethyl-hexyl)-2-ethylsulfanyl-4-methyl-6-morpholin-4-yl-pyridine-3-carboxylic acid amide] | 228 | 22
25 | CCSc1nc(N2CCOC[C@H]2C)cc(C)c1C(=O)NCc1ccc(F)c(COC)c1 [Example 352, 2-Ethylsulfanyl-N-[[4-fluoro-3-(methoxymethyl)-phenyl]-methyl]-4-methyl-6-[(3R)-3-methyl-morpholin-4-yl]-pyridine-3-carboxylic acid amide] | 166 | 287
26 | CCSc1nc(N(C)CCOC)cc(C)c1C(=O)NCc1cccc(F)c1 [Example 35, 2-Ethylsulfanyl-N-[(3-fluorophenyl)-methyl]-6-(2-methoxy-ethyl-methyl-amino)-4-methyl-pyridine-3-carboxylic acid amide] | 153 | 635
27 | Cc1cc(N2CCOCC2)nc(C2CC2)c1C(=O)NCc1ccc(Cl)cc1 [Example 335, N-[(4-Chlorophenyl)-methyl]-2-cyclopropyl-4-methyl-6-morpholin-4-yl-pyridine-3-carboxylic acid amide] | 162 | 85
28 | CCC(C)c1nc(N2CCOC[C@H]2C)cc(C)c1C(=O)NCCCC(C)(C)C (stereo partly drawn) [Example 195, N-(4,4-Dimethyl-pentyl)-4-methyl-6-[(3R)-3-methyl-morpholin-4-yl]-2-(1-methyl-propyl)-pyridine-3-carboxylic acid amide] | 242 | 13
29 | CCCc1nc(N2CCOC[C@H]2C)cc(C)c1C(=O)NCCCC(C)(C)C [Example 199, N-(4,4-Dimethyl-pentyl)-4-methyl-6-[(3R)-3-methyl-morpholin-4-yl]-2-propyl-pyridine-3-carboxylic acid amide] | 232 | 50
30 | CCC(C)Cc1nc(N2CCOCC2)cc(C)c1C(=O)NCCCC(C)(C)C (centres unmarked) [Example 278, N-(4,4-Dimethyl-pentyl)-4-methyl-2-(2-methyl-butyl)-6-morpholin-4-yl-pyridine-3-carboxylic acid amide] | 225 | 36
31 | CCSc1nc(N2CCOCC2)cc(C)c1C(=O)NCc1ccc(F)c(C(F)(F)F)c1 [Example 82, 2-Ethylsulfanyl-N-[[4-fluoro-3-(trifluoromethyl)-phenyl]-methyl]-4-methyl-6-morpholin-4-yl-pyridine-3-carboxylic acid amide] | 117 | 118
32 | CCSc1nc(N2CCOC[C@H]2C)cc(C)c1C(=O)NCc1cc(F)cc(F)c1 [Example 233, N-[(3,5-Difluoro-phenyl)-methyl]-2-ethylsulfanyl-4-methyl-6-[(3R)-3-methyl-morpholin-4-yl]-pyridine-3-carboxylic acid amide] | 196 | 70
